PMC7445428, “Simplified dolutegravir dosing for children with HIV weighing 20 kg or more: pharmacokinetic and safety substudies of the multicentre, randomised ODYSSEY trial” (The Lancet. HIV, 2020)
Like-named read-outs stand apart in the source and are kept apart here. Marks after values point to notes of the source that are not given here.

Columns and labels:
[1] = Safety follow-up (serious, grade 3 or 4 adverse events) over 24 weeks in children of the pharmacokinetic substudies; assay type: in vivo, human
Description: Children enrolled in the pharmacokinetic substudies attended study visits following the main ODYSSEY trial protocol (visits every 12 weeks after week 4 from enrolment). Participants whose dose was increased to 30 mg dispersible tablets or the 50 mg film-coated tablet had additional safety visits at weeks 2, 4, and 12 after dose adaptation. At each visit, we did a clinical assessment, including haematology and biochemistry safety parameters. We ascertained serious adverse events (defined according to International Conference on Harmonisation Guideline for Good Clinical Practice), grade 3 and 4 clinical and laboratory events, and events resulting in modification of ART (any grade).
All children consenting to inclusion in a pharmacokinetic substudy contributed safety data from the start of each pharmacokinetic dose for 24 weeks or to last follow-up visit, whichever was earlier; no participant commenced a second pharmacokinetic dose before completing 24 weeks on the first pharmacokinetic dose with the exception of children weighing 25 kg to less than 40 kg crossing over from the doses approved by the SRAs at the time of the study the 50 mg film-coated tablet, with which follow-up could be shorter. As part of the ODYSSEY trial, an independent endpoint review committee who were masked to trial groups (third drug of ART regimen) reviewed all reported adverse events. We did descriptive analysis reporting follow-up and adverse events by dose and weight band in STATA (version 15.0). An independent data monitoring committee reviewed conduct, pharmacokinetic, and safety data from these substudies. The ODYSSEY trial is registered with ClinicalTrials.gov, NCT02259127.

[2] = parameters: method as in PMID 22183173; settings: adult healthy volunteers, cited from earlier work
[3] = parameters: method as in earlier work; settings: cited from earlier work
[4] = parameters: species or system human
Description: The pharmacokinetic substudy for children weighing 25 kg to less than 40 kg was a within-subject, two-period, fixed-order, pharmacokinetic study with paediatric dolutegravir doses approved by the SRAs at the time of the study used in the first period and a higher (adult) dose of 50 mg as film-coated tablet in the second period. A child first completed 24-h intensive pharmacokinetic sampling after at least 1 week of receiving 25 mg film-coated tablets if they were in the 25 kg to less than 30 kg weight band or 35 mg (one 10 mg and one 25 mg film-coated tablet) if they were in the 30 to less than 40 kg weight band. The second 24-h pharmacokinetic profile was taken at least 1 week after the switch to a daily 50 mg film-coated tablet.
In a parallel pharmacokinetic substudy, children weighing 20 kg to less than 25 kg had 24-h intensive pharmacokinetic profiling on the once-daily dose of dolutegravir 25 mg film-coated tablet (part one). After review of the results, we did a subsequent substudy (part two) in children weighing 20 to less than 25 kg, investigating higher dolutegravir doses to achieve better exposures. On the basis of results of part one and to simplify dosing and future access to formulations, we studied the 50 mg adult film-coated tablet. Because we were concurrently investigating dispersible dolutegravir tablets in children weighing less than 20 kg (not reported here), we also studied a 30 mg dose given as six 5 mg dispersible tablets, which is bioequivalent to a 50 mg film-coated tablet,[16] as an option for children unable to swallow adult tablets. Dolutegravir 50 mg film-coated tablet or 30 mg dispersible tablet formulations were allocated by site. This substudy primarily enrolled children who had not participated in part one because children initially recruited in this weight band had gained weight and were no longer in the weight band.
To achieve steady-state, children attended their pharmacokinetic study visit day at least 7 days after starting on the investigated dolutegravir dose. We ascertained medication adherence during the last 3 days before the day of pharmacokinetic assessment to ensure that no doses had been missed. To construct a dolutegravir plasma concentration-time profile, blood samples of 2 mL were taken at baseline and 1, 2, 3, 4, 6, and 24 h after observed dolutegravir intake with 100 mL of water. To conform with adult comparator studies, participants fasted at least 3 h before dolutegravir intake, although an overnight fast was preferred. Dispersible tablets were dispersed in a small amount of water and immediately taken, followed by an additional intake of water up to a volume of 100 mL. We allowed no medications, other than nucleoside reverse transcriptase inhibitors, within 2 h after dolutegravir intake. Children fasted 2 h after dolutegravir intake before having a light breakfast (containing approximately 250 calories). During pharmacokinetic assessment days all food was provided at set times.
We refrigerated blood samples within 10 min and centrifuged them within 24 h of collection. Plasma was separated and stored at −80°C until shipping to the laboratory of the Department of Pharmacy, Radboudumc, Nijmegen, Netherlands for quantification with a validated liquid chromatography tandem mass spectrometry bioanalytical quantification method (lower limit of quantification of 0·01 mg/L).[18]
We included all participants consenting to inclusion in the pharmacokinetic substudies in the safety analyses. For the pharmacokinetic analyses, we considered haemolysed samples non-evaluable and excluded pharmacokinetic profiles if treatment non-adherence was likely (predefined when a predose concentration [C0] was >15 times below the concentration 24 h after observed drug intake (trough concentration [Ctrough]), if protocol violations had occurred, or if concomitant medications known to affect dolutegravir drug concentrations had been used. […]

plasma HIV-1 RNA = test system: plasma HIV-1 RNA; parameters: method as in PMID 22018760; settings: adults, 96 weeks, cited from earlier work
[5] = 20 to <25 kg, 9 patients (50 mg) FCT
[6] = 20 to <25 kg, 10 patients (30 mg) DT
[7] = 20 to <25 kg, 17 patients (25 mg) FCT
[8] = 25 to <30 kg, 17 patients (25 mg) FCT
[9] = 25 to <30 kg, 17 patients (50 mg) FCT
[10] = 30 to <40 kg, 11 patients (35 mg) FCT
[11] = 30 to <40 kg, 11 patients (50 mg) FCT

Structure (SMILES): C[C@@H]1CCO[C@H]2Cn3cc(C(=O)NCc4ccc(F)cc4F)c(=O)c(O)c3C(=O)N12 [dolutegravir]
- Total adverse events (grade 3 or 4 or serious adverse event) ([1]; 17 patients (25 mg) FCT): 3 (18%) n (%)
- Anaemia (grade 3 or 4 asymptomatic laboratory event) [1, 5]: 0 n (%)
- Cryptococcal meningitis (grade 3 or 4 clinical adverse event) [1, 5]: 0 n (%)
- Grade 3 or 4 asymptomatic laboratory events [1, 5]: 0 n (%)
- Grade 3 or 4 clinical adverse events [1, 5]: 0 n (%)
- Neutropenia (grade 3 or 4 asymptomatic laboratory event) [1, 5]: 0 n (%)
- Thrombocytopenia and raised transaminases (grade 3 or 4 asymptomatic laboratory event) [1, 5]: 0 n (%)
- Anaemia (grade 3 or 4 asymptomatic laboratory event) [1, 6]: 0 n (%)
- Cryptococcal meningitis (grade 3 or 4 clinical adverse event) [1, 6]: 0 n (%)
- Grade 3 or 4 asymptomatic laboratory events [1, 6]: 0 n (%)
- Grade 3 or 4 clinical adverse events [1, 6]: 0 n (%)
- Neutropenia (grade 3 or 4 asymptomatic laboratory event) [1, 6]: 0 n (%)
- Thrombocytopenia and raised transaminases (grade 3 or 4 asymptomatic laboratory event) [1, 6]: 0 n (%)
- Anaemia (grade 3 or 4 asymptomatic laboratory event) [1, 7]: 0 n (%)
- Cryptococcal meningitis (grade 3 or 4 clinical adverse event) [1, 7]: 0 n (%)
- Grade 3 or 4 asymptomatic laboratory events [1, 7]: 3 (18%) n (%)
- Grade 3 or 4 clinical adverse events [1, 7]: 0 n (%)
- Anaemia (grade 3 or 4 asymptomatic laboratory event) [1, 8]: 0 n (%)
- Cryptococcal meningitis (grade 3 or 4 clinical adverse event) [1, 8]: 0 n (%)
- Grade 3 or 4 asymptomatic laboratory events [1, 8]: 0 n (%)
- Grade 3 or 4 clinical adverse events [1, 8]: 0 n (%)
- Neutropenia (grade 3 or 4 asymptomatic laboratory event) [1, 8]: 0 n (%)
- Thrombocytopenia and raised transaminases (grade 3 or 4 asymptomatic laboratory event) [1, 8]: 0 n (%)
- Anaemia (grade 3 or 4 asymptomatic laboratory event) [1, 9]: 0 n (%)
- Cryptococcal meningitis (grade 3 or 4 clinical adverse event) [1, 9]: 0 n (%)
- Grade 3 or 4 asymptomatic laboratory events [1, 9]: 1 (6%) n (%)
- Grade 3 or 4 clinical adverse events [1, 9]: 0 n (%)
- Neutropenia (grade 3 or 4 asymptomatic laboratory event) [1, 9]: 1 (6%) n (%)
- Thrombocytopenia and raised transaminases (grade 3 or 4 asymptomatic laboratory event) [1, 9]: 0 n (%)
- Total adverse events (grade 3 or 4 or serious adverse event) [1, 9]: 1 (6%) n (%)
- Reportable adverse events ([1]; 28 children weighing 25 kg or more on 50 mg film-coated tablets, follow-up 24 weeks): three
- Anaemia (grade 3 or 4 asymptomatic laboratory event) [1, 10]: 0 n (%)
- Cryptococcal meningitis (grade 3 or 4 clinical adverse event) [1, 10]: 0 n (%)
- Grade 3 or 4 asymptomatic laboratory events [1, 10]: 0 n (%)
- Grade 3 or 4 clinical adverse events [1, 10]: 0 n (%)
- Neutropenia (grade 3 or 4 asymptomatic laboratory event) [1, 10]: 0 n (%)
- Thrombocytopenia and raised transaminases (grade 3 or 4 asymptomatic laboratory event) [1, 10]: 0 n (%)
- Anaemia (grade 3 or 4 asymptomatic laboratory event) [1, 11]: 1 (9%) n (%)
- Grade 3 or 4 asymptomatic laboratory events [1, 11]: 1 (9%) n (%)
- Grade 3 or 4 clinical adverse events [1, 11]: 1 (9%) n (%)
- Neutropenia (grade 3 or 4 asymptomatic laboratory event) [1, 11]: 0 n (%)
- Thrombocytopenia and raised transaminases (grade 3 or 4 asymptomatic laboratory event) [1, 11]: 0 n (%)
- Total adverse events (grade 3 or 4 or serious adverse event) [1, 11]: 2 (18%) n (%)
- Cryptococcal meningitis (grade 3 or 4 clinical adverse event) ([1]; 30 to <40 kg, 11 patients (50 mg) FCT, serious adverse event): 1 (9%) ^** n (%)
- Adverse events considered related to dolutegravir ([1]; 47 children on 50 mg film-coated tablet or 30 mg dispersible tablets, reporting clinicians and endpoint review committee): none
- Increase of C24 with food compared with fasting ([2]; high fat meal): 73%
- Increase of C24 with food compared with fasting ([2]; low fat meal): 33%
- Increase of C24 with food compared with fasting ([2]; moderate fat meal): 45%
- Bioequivalence of 30 mg dose as six 5 mg dispersible tablets to 50 mg film-coated tablet [3]: bioequivalent
- Children with individual Ctrough below 0·32 mg/L (in vivo EC90) ([4]; human, 24 h): 12 (30%) n (%)
- AUC0-24h / Dose geometric mean ratio (90% CI), 50 mg FCT vs 25/35 mg FCT ([4]; human, in vivo): 0∙91 (0∙85-0∙97)
- Cmax / Dose geometric mean ratio (90% CI), 50 mg FCT vs 25/35 mg FCT ([4]; human, in vivo): 0∙89 (0∙82-0∙96)
- GM Cmax higher than in adults on 50 mg twice-daily ([4]; human, in vivo): 32%
- GM Cmax higher than in adults on 50 mg twice-daily ([4]; human, in vivo, 50 mg): 17%
- Ctrough / Dose geometric mean ratio (90% CI), 50 mg FCT vs 25/35 mg FCT ([4]; human, in vivo, 24 h): 0∙98 (0∙87-1∙10)
- Ctrough geometric mean ratio (90% CI), 50 mg FCT vs 30 mg DT ([4]; human, in vivo, 24 h): 0∙99 (0∙57-1∙71)
- Equivalence, 50 mg FCT vs 30 mg DT ([4]; in vivo): Suggested
- Sustained virological response rate (plasma HIV-1 RNA <50 copies per mL) (plasma HIV-1 RNA; 10 mg film-coated tablet once daily): 79%
- Sustained virological response rate (plasma HIV-1 RNA <50 copies per mL) (plasma HIV-1 RNA; 50 mg film-coated tablet once daily): 88%
